Laboratory results from ChEMBL document CHEMBL1125480, “Studies on antidiabetic agents. 11. Novel thiazolidinedione derivatives as potent hypoglycemic and hypolipidemic agents” (1992).

Columns and labels:
Type in all cases: functional
Mus musculus [1] = species on record: Mus musculus; assay: (§1) Effective dose to reduce 25% of glucose levels in blood
Mus musculus [2] = species on record: Mus musculus; assay: Effective dose to reduce 25% of triglyceride levels in plasma
Mus musculus [3] = species on record: Mus musculus; assay: Compound was tested for maximum reduction in blood glucose levels in KKA mice at a dosage of 0.01% in diet
Mus musculus [4] = species on record: Mus musculus; assay: Compound was tested for maximum reduction in blood glucose levels in KKA mice at a dosage of 0.05% in diet
Mus musculus [5] = species on record: Mus musculus; assay: Compound was tested for maximum reduction in plasma triglyceride levels in KKA mice at a dosage of 0.01% in diet
Mus musculus [6] = species on record: Mus musculus; assay: Compound was tested for maximum reduction in plasma triglyceride levels in KKA mice at a dosage of 0.05% in diet
Mus musculus [7] = species on record: Mus musculus; assay: Maximum reduction in blood glucose levels in KKA mice at a dosage of 0.001% in diet
Mus musculus [8] = species on record: Mus musculus; assay: Maximum reduction in blood glucose levels in KKA mice at a dosage of 0.005% in diet
Mus musculus [9] = species on record: Mus musculus; assay: Maximum reduction in plasma triglyceride levels in KKA mice at a dosage of 0.001% in diet
Mus musculus [10] = species on record: Mus musculus; assay: Maximum reduction in plasma triglyceride levels in KKA mice at a dosage of 0.005% in diet
Mus musculus [11] = species on record: Mus musculus; assay: Compound was tested for maximum reduction in plasma triglyceride levels in KKA mice at a dosage of 0.005% in diet
[12] = as §1; settings: Mus musculus

| SMILES | ED25 (Mus musculus [1]; Mus musculus, Blood) [mg/kg/day] | ED25 (Mus musculus [2]) [mg/kg/day] | Reduction (Mus musculus [3]) [%] | Reduction (Mus musculus [4]) [%] | Reduction (Mus musculus [5]) [%] | Reduction (Mus musculus [6]) [%] | Reduction (Mus musculus [7]) [%] | Reduction (Mus musculus [8]) [%] | Reduction (Mus musculus [9]) [%] | Reduction (Mus musculus [10]) [%] | Reduction (Mus musculus [11]) [%] | ED25 [12] [mg/kg/day] | ED25 (Mus musculus [1]) [mg/kg/day] |
| --- | --- | --- | --- | --- | --- | --- | --- | --- | --- | --- | --- | --- | --- |
| O=C1NC(=O)C(Cc2ccc(OCCc3coc(-c4ccccc4)n3)cc2)S1 (stereo not drawn) | 0.3 | 0.5 | 41 | 58 | 51 | 68 |  |  |  |  |  |  |  |
| O=C1NC(=O)/C(=C/c2ccc(OCCc3csc(-c4ccccc4)n3)cc2)S1 | 0.6 | 1.3 |  |  |  |  | 49 | 57 | 44 | 57 |  |  |  |
| Cc1oc(-c2cccs2)nc1CCOc1ccc(CC2SC(=O)NC2=O)cc1 (stereo not drawn) | 0.09 | 0.3 |  |  |  |  | 50 | 51 | 41 | 72 |  |  |  |
| Cc1oc(-c2ccccc2)nc1COc1ccc(CC2SC(=O)NC2=O)cc1 (stereo not drawn) | 3 | 5 |  |  |  |  | 23 | 21 | 17 | 44 |  |  |  |
| COc1ccc(-c2nc(CCOc3ccc(CC4SC(=O)NC4=O)cc3)c(C)o2)cc1 (stereo not drawn) | 0.3 | 0.6 |  |  |  |  | 53 | 55 | 63 | 72 |  |  |  |
| Cc1nc(C(O)COc2ccc(CC3SC(=O)NC3=O)cc2)c(C)o1 (stereo not drawn) | 0.2 | 0.5 |  |  |  |  | 55 | 51 | 52 | 62 |  |  |  |
| O=C1NC(=O)C(Cc2ccc(OCc3csc(-c4ccccc4)n3)cc2)S1 (stereo not drawn) | 6 | 8 |  |  |  |  | 11 | 28 | 3 |  | 32 |  |  |
| Cc1oc(-c2ccccc2)nc1C(O)COc1ccc(/C=C2\SC(=O)NC2=O)cc1 (stereo not drawn) | 0.9 | 0.3 |  |  |  |  | 36 | 56 | 54 | 60 |  |  |  |
| CCc1oc(C)nc1CCOc1ccc(CC2SC(=O)NC2=O)cc1 (stereo not drawn) | 3 | 5 |  |  |  |  | 15 | 46 | 0 | 45 |  |  |  |
| Cc1oc(-c2ccccc2)nc1C(O)COc1ccc(CC2SC(=O)NC2=O)cc1 (stereo not drawn) | 0.05 | 0.1 |  |  |  |  | 54 | 58 | 62 | 81 |  |  |  |
| Cc1oc(-c2ccccc2)nc1CCOc1ccc(CC2SC(=O)NC2=O)cc1 (stereo not drawn) | 0.05 | 0.09 |  |  |  |  | 55 | 59 | 67 | 66 |  |  |  |
| Cc1oc(-c2ccco2)nc1CCOc1ccc(CC2SC(=O)NC2=O)cc1 (stereo not drawn) |  | 0.9 |  |  |  |  | 50 | 50 | 41 | 69 |  | 0.4 |  |
| Cc1nc(CCOc2ccc(CC3SC(=O)NC3=O)cc2)co1 (stereo not drawn) |  | 3 |  |  |  |  | 13 | 37 | 20 | 42 |  |  | 5 |
